{"source": "patent US20230265157A1", "about": "“MHC MULTIMER EXPRESSION CONSTRUCTS AND USES THEREOF” (priority 2020, published 2023)", "system": "WT-1-specific T cells", "assay": "Specific cell staining / titration on WT-1-specific T cells", "format": "cell-based", "details": "untreated, digested and WT-1-exchanged tetramers at 1 nM and 20 nM", "source_text": "The amino acid sequence of the Y84A HLA alpha chain is shown in SEQ ID NO: 321. This mutation is known in the art to stabilize binding of the tethered peptide by reducing steric conflict with the peptide linker.", "data": [{"substance": "Y84A variant of the A*02:01 tetramer", "values": [{"measurement": "staining of NLV- and WT-1-specific CD8+ T cells", "result": "converting NLV reactivity to WT-1 reactivity"}]}]}
